Here are results for one cell line from the supplement of paper PMC10307832.

What all share (assay): relative viability (nuclei count vs DMSO), 5 days (fraction); higher = more cells survive
Compound in test [1]: CS(=O)(=O)N1CCN(Cc2cc3nc(-c4cccc5[nH]ncc45)nc(N4CCOCC4)c3s2)CC1 [Pictilisib] + Cc1nc(NC(=O)N2CCC[C@H]2C(N)=O)sc1-c1ccnc(C(C)(C)C(F)(F)F)c1 [Alpelisib] (partner 2 µM)
In outline: (§1)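 Medians of duplicate plates are given as relative viability. That measure is the nuclei count in treated wells divided by the count in vehicle wells. Counts were taken on 4× images of lung cancer cell lines in 1536-well plates, 5 days after pin-tool dosing the day after seeding with one drug alone or a fixed anchor-drug dose plus five library-drug doses (not always all listed) in √10 steps.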

Compound in test [2]: CS(=O)(=O)N1CCN(Cc2cc3nc(-c4cccc5[nH]ncc45)nc(N4CCOCC4)c3s2)CC1 [Pictilisib] + O=C(c1cc(Cc2n[nH]c(=O)c3ccccc23)ccc1F)N1CCN(C(=O)C2CC2)CC1 [Olaparib] (partner 8 µM)
In short, it runs like this:
as §1

Compound in test [3]: NC1(c2ccc(-c3nc4ccn5c(=O)[nH]nc5c4cc3-c3ccccc3)cc2)CCC1 [MK-2206] + COc1cc2c(Oc3ccc(NC(=O)C4(C(=O)Nc5ccc(F)cc5)CC4)cc3F)ccnc2cc1OCCCN1CCOCC1 [Foretinib] (partner 0.25 µM)
In short, it runs like this:
as §1

Compound in test [4]: NC1(c2ccc(-c3nc4ccn5c(=O)[nH]nc5c4cc3-c3ccccc3)cc2)CCC1 [MK-2206] + CS(=O)(=O)CCNCc1ccc(-c2ccc3ncnc(Nc4ccc(OCc5cccc(F)c5)c(Cl)c4)c3c2)o1 [Lapatinib] (partner 2 µM)
In outline: as §1

Compound in test [5]: NC1(c2ccc(-c3nc4ccn5c(=O)[nH]nc5c4cc3-c3ccccc3)cc2)CCC1 [MK-2206] + Nc1nc2[nH]cc(CCc3ccc(C(=O)N[C@@H](CCC(=O)O)C(=O)O)cc3)c2c(=O)[nH]1 [Pemetrexed] (partner 0.2 µM)
In outline:
as §1

As for UMC-11, the relative viability in test [1] (first compound 0.02 µM) turned out to be 0.942; in test [1] (first compound 0.06325 µM) it was 1.05; in test [1] (first compound 0.6325 µM), 1.14; in test [1] (first compound 2 µM), 1.17; in test [2] (first compound 0.02 µM) it was 0.822; in test [2] (first compound 0.06325 µM) it was 0.344. Besides, the relative viability in test [2] (first compound 0.6325 µM) is 0.666; in test [2] (first compound 2 µM) it was 0.384; in test [3] (first compound 0.01 µM) it was 1.08; in test [3] (first compound 0.03162 µM) it was 1.1; in test [3] (first compound 0.3162 µM) it was 1.16; in test [3] (first compound 1 µM), 1.05. Further, the relative viability is 1.27 in test [4] (first compound 0.01 µM); 1.1 in test [4] (first compound 0.03162 µM); 0.99 in test [4] (first compound 0.3162 µM); 0.941 in test [4] (first compound 1 µM); 0.862 in test [5] (first compound 0.01 µM); 0.763 in test [5] (first compound 0.03162 µM). The relative viability came out at 0.836 in test [5] (first compound 0.3162 µM) and 0.791 in test [5] (first compound 1 µM).
